Holding throughout (test): relative viability (nuclei count vs DMSO), 5 days (fraction); higher = more cells survive
Compound in assay [1]: O=C(Nc1cc(C(F)(F)F)cc(C(F)(F)F)c1)c1cc(Cl)ccc1O [IMD-0354] + CC(=O)Nc1cccc(-n2c(=O)n(C3CC3)c(=O)c3c(Nc4ccc(I)cc4F)n(C)c(=O)c(C)c32)c1 [Trametinib] (partner 0.02 µM)
The gist of the method: (§1)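 Lung cancer cell lines, seeded in 1536-well plates, were treated the following day by pin tool with a single drug or with five library-drug doses (not always all listed) in √10 steps on top of a fixed anchor-drug dose. Cells were fixed and nuclei stained in one step after 5 days, and nuclei were counted. Relative viability is the nuclei count for treated wells divided by that for vehicle wells, reported as medians of duplicate plates.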

Compound in assay [2]: O=C(Nc1cc(C(F)(F)F)cc(C(F)(F)F)c1)c1cc(Cl)ccc1O [IMD-0354] + C[C@]1(O)C[C@@H](c2nc(-c3ccc4ccc(-c5ccccc5)nc4c3)c3c(N)nccn32)C1 [Linsitinib] (partner 1 µM)
The gist of the method: as §1

Compound in assay [3]: O=C(Nc1cc(C(F)(F)F)cc(C(F)(F)F)c1)c1cc(Cl)ccc1O [IMD-0354] + Nc1ncn([C@H]2C[C@H](O)[C@@H](CO)O2)c(=O)n1 [Decitabine] (partner 2 µM)
Put shortly: as §1

Compound in assay [4]: Cc1cnc(CNC(=O)c2c(=O)c3ccc(N4CCCN(C)CC4)nc3n3c2sc2ccccc23)cn1 [CX-5461] + CCNC(=O)c1noc(-c2cc(C(C)C)c(O)cc2O)c1-c1ccc(CN2CCOCC2)cc1 [Luminespib] (partner 0.01 µM)
The gist of the method:
as §1

In the case of NCI-H23, the relative viability in assay [1] (first compound 0.04 µM) stood at 0.456; in assay [1] (first compound 0.1265 µM), 0.344; in assay [1] (first compound 0.4 µM) it was 0.28; in assay [1] (first compound 1.265 µM) it was 0.144; in assay [1] (first compound 4 µM) it was 0.162; in assay [2] (first compound 0.04 µM) it was 0.643. Also, the relative viability amounted to 0.646 in assay [2] (first compound 0.1265 µM); 0.425 in assay [2] (first compound 0.4 µM); 0.318 in assay [2] (first compound 1.265 µM); 0.19 in assay [2] (first compound 4 µM); 0.271 in assay [3] (first compound 0.04 µM); 0.313 in assay [3] (first compound 0.1265 µM). Besides, the relative viability was found to be 0.295 in assay [3] (first compound 0.4 µM); 0.192 in assay [3] (first compound 1.265 µM); 0.24 in assay [3] (first compound 4 µM); 0.212 in assay [4] (first compound 0.01 µM); 0.234 in assay [4] (first compound 0.03162 µM); 0.197 in assay [4] (first compound 0.1 µM). Besides, the relative viability in assay [4] (first compound 0.3162 µM) came to 0.234; in assay [4] (first compound 1 µM), 0.214.
Take NCI-H322M: the relative viability came out at 0.567 in assay [1] (first compound 0.04 µM); 0.622 in assay [1] (first compound 0.1265 µM); 0.483 in assay [1] (first compound 0.4 µM); 0.388 in assay [1] (first compound 1.265 µM); 0.426 in assay [1] (first compound 4 µM); 0.973 in assay [2] (first compound 0.04 µM). Also, the relative viability was 0.909 in assay [2] (first compound 0.1265 µM); 0.793 in assay [2] (first compound 0.4 µM); 1.09 in assay [2] (first compound 1.265 µM); 0.319 in assay [2] (first compound 4 µM); 0.747 in assay [3] (first compound 0.04 µM); 0.583 in assay [3] (first compound 0.1265 µM). For the same cell line, the relative viability in assay [3] (first compound 0.4 µM) is 0.617; in assay [3] (first compound 1.265 µM), 0.403; in assay [3] (first compound 4 µM), 0.404; in assay [4] (first compound 0.01 µM), 1.08; in assay [4] (first compound 0.03162 µM), 0.799; in assay [4] (first compound 0.1 µM), 0.798. Moreover, the relative viability in assay [4] (first compound 0.3162 µM) is 0.469; in assay [4] (first compound 1 µM), 0.402.
For NCI-H358, the relative viability amounted to 0.116 in assay [1] (first compound 0.04 µM); 0.128 in assay [1] (first compound 0.1265 µM); 0.14 in assay [1] (first compound 0.4 µM); 0.134 in assay [1] (first compound 1.265 µM); 0.102 in assay [1] (first compound 4 µM); 0.993 in assay [2] (first compound 0.04 µM). In addition, the relative viability in assay [2] (first compound 0.1265 µM) was found to be 0.773; in assay [2] (first compound 0.4 µM), 0.385; in assay [2] (first compound 1.265 µM), 0.23; in assay [2] (first compound 4 µM), 0.221; in assay [3] (first compound 0.04 µM), 0.239; in assay [3] (first compound 0.1265 µM), 0.204. For the same cell line, the relative viability in assay [3] (first compound 0.4 µM) came out at 0.172; in assay [3] (first compound 1.265 µM) it was 0.106; in assay [3] (first compound 4 µM), 0.108; in assay [4] (first compound 0.01 µM), 0.317; in assay [4] (first compound 0.03162 µM) it was 0.42; in assay [4] (first compound 0.1 µM), 0.327. Also, the relative viability in assay [4] (first compound 0.3162 µM) worked out at 0.358; in assay [4] (first compound 1 µM), 0.371.
Take NCI-H441: the relative viability was 0.528 in assay [1] (first compound 0.04 µM); 0.543 in assay [1] (first compound 0.1265 µM); 0.359 in assay [1] (first compound 0.4 µM); 0.164 in assay [1] (first compound 1.265 µM); 0.191 in assay [1] (first compound 4 µM); 0.485 in assay [2] (first compound 0.04 µM). Further, the relative viability worked out at 0.659 in assay [2] (first compound 0.1265 µM); 0.31 in assay [2] (first compound 0.4 µM); 0.234 in assay [2] (first compound 1.265 µM); 0.22 in assay [2] (first compound 4 µM); 0.223 in assay [3] (first compound 0.04 µM); 0.256 in assay [3] (first compound 0.1265 µM). Also, the relative viability in assay [3] (first compound 0.4 µM) was 0.247; in assay [3] (first compound 1.265 µM), 0.131; in assay [3] (first compound 4 µM), 0.146; in assay [4] (first compound 0.01 µM), 0.322; in assay [4] (first compound 0.03162 µM), 0.421; in assay [4] (first compound 0.1 µM), 0.323. Further, the relative viability was 0.444 in assay [4] (first compound 0.3162 µM) and 0.239 in assay [4] (first compound 1 µM).
